In brackets after ≈: the same amount, converted by molar mass. Where two headings read alike, the source gives them in different places. Where only a bound is given, the exact number is not on record here.

As usually defined, the MIC50 is an inhibitory concentration at the 50% level, which refers to growth in some studies and to a panel of isolates in others. As usually defined, the MIC90 is the lowest concentration that inhibits either 90% of growth or 90% of the strains tested, depending on the study.

For experiment [1], the system named is methicillin-sensitive S. aureus (MSSA). Nature of the experiment: In vitro MIC against isolates of MSSA. It is filed as cell-based, Staphylococcus aureus. The settings on record: for MIC Range / MIC50 / MIC90: MSSA (34 isolates); for MIC50 / MIC90: Staphylococcus aureus; for MIC90: read-out: MIC90.
Experiment [2] concerns hospital-associated methicillin-resistant S. aureus (MRSA-HA). Nature of the experiment: In vitro MIC against isolates of MRSA-HA. It counts as cell-based, Staphylococcus aureus. The settings on record: for MIC50 / MIC90: Staphylococcus aureus.
The test system of experiment [3] is community-acquired methicillin-resistant S. aureus (MRSA-CA). The experiment in a line: In vitro MIC against isolates of MRSA-CA. It counts as cell-based, Staphylococcus aureus. The settings on record: for MIC50 / MIC90: Staphylococcus aureus.
The test system of experiment [4] is S. aureus. The experiment in a line: In vitro MIC testing, antibacterial spectrum of activity. It is filed as cell-based, Staphylococcus aureus. The settings on record: for MIC50 / MIC90: Staphylococcus aureus.
Experiment [5] has as its system S. epidermidis. Described as above. It counts as cell-based, Staphylococcus epidermidis. The settings on record: for MIC50 / MIC90: Staphylococcus epidermidis.
In experiment [6] the test system is S. haemolyticus. The experiment is described as above. It counts as cell-based. Conditions: for MIC50 / MIC90: Staphylococcus haemolyticus.
For experiment [7], the system named is P. acnes. The experiment is described as above. It is filed as cell-based, Propionibacterium acnes.
Experiment [8] concerns S. pneumoniae. The description is as above. It is filed as cell-based, Streptococcus pneumoniae.
The test system of experiment [9] is S. pyogenes. The description is as above. It counts as cell-based.
Experiment [10] deals with S. agalactiae. The experiment is described as above. It counts as cell-based.
Experiment [11] concerns Streptococcus spp. [Group C]. Described as above. It is filed as cell-based.
Experiment [12] relates to E. faecalis. The description is as above. It is filed as cell-based.
The test system of experiment [13] is E. faecium. The experiment is described as above. It counts as cell-based. The settings on record: for MIC50 / MIC90: Enterococcus faecium.
Where [14] appears, read: S. epidermidis [MSSE] (31 isolates).
Setting [15] is: S. pneumoniae [PSSP] (32 isolates).
Setting [16] is: Streptococcus spp. [Group C] (30 isolates).

Regarding `CC(=O)NC[C@H]1CN(c2ccc(N3CCOCC3)c(F)c2)C(=O)O1` [Linezolid], the “MIC Range” value in [1], in experiment [2] (MRSA-HA (33 isolates)) and in experiment [3] (MRSA-CA (33 isolates)) was 2 to 4 µg/mL each time. For the same molecule, the MIC50 in [1], in experiment [2] (MRSA-HA (33 isolates)) and in experiment [3] (MRSA-CA (33 isolates)) was 2 µg/mL (≈ 5.93 µM) each time. Also, the MIC90 in [1] is 4 µg/mL (≈ 11.9 µM); in experiment [2] (MRSA-HA (33 isolates)), 2 µg/mL (≈ 5.93 µM); in experiment [3] (MRSA-CA (33 isolates)) it was 4 µg/mL (≈ 11.9 µM). For the same molecule, the “susceptibility of the test organisms” value in [1] (all MSSA test organisms), in experiment [2] (all MRSA-HA organisms) and in [3] (all MRSA-CA test organisms) was “susceptible” throughout.
In the case of `Cc1onc(-c2ccccc2)c1C(=O)N[C@@H]1C(=O)N2[C@@H]1SC(C)(C)[C@@H]2C(=O)O` [Oxacillin], the figures for the “MIC Range” value in experiment [4] (S. aureus [MSSA] (32 isolates)), in [5] (setting [14]) and in experiment [1] were 0.12 to 1 µg/mL, 0.06 to 0.25 µg/mL and 0.25 to 2 µg/mL, respectively. Also, the MIC50 was more than 32 µg/mL in experiment [4] (MRSA, S. aureus [MRSA] (31 isolates), read-out: MIC50); 0.5 µg/mL (≈ 1.25 µM) in [4] (MSSA, S. aureus [MSSA] (32 isolates), read-out: MIC50); 32 µg/mL (≈ 79.7 µM) in experiment [5] (S. epidermidis [MRSE] (32 isolates), read-out: MIC50); 0.12 µg/mL (≈ 0.299 µM) in experiment [5] (S. epidermidis [MSSE] (31 isolates), read-out: MIC50); 0.25 µg/mL (≈ 0.623 µM) in experiment [6] (S. haemolyticus (33 isolates), read-out: MIC50); 0.25 µg/mL (≈ 0.623 µM) in [1]. The MIC50 in experiment [2] (MRSA-HA (33 isolates)) and in [3] (MRSA-CA (33 isolates)) was 32 µg/mL (≈ 79.7 µM) throughout. Also, the MIC90 is more than 32 µg/mL in experiment [4] (MRSA, S. aureus [MRSA] (31 isolates), read-out: MIC90); 1 µg/mL (≈ 2.49 µM) in experiment [4] (MSSA, S. aureus [MSSA] (32 isolates), read-out: MIC90); more than 32 µg/mL in [5] (S. epidermidis [MRSE] (32 isolates), read-out: MIC90); 0.25 µg/mL (≈ 0.623 µM) in [5] (S. epidermidis [MSSE] (31 isolates), read-out: MIC90); more than 32 µg/mL in [6] (S. haemolyticus (33 isolates), read-out: MIC90); 0.5 µg/mL (≈ 1.25 µM) in experiment [1]. The MIC90 in experiment [2] (MRSA-HA (33 isolates)) and in experiment [3] (MRSA-CA (33 isolates)) was more than 32 µg/mL throughout.
Turning to `CN[C@H](CC(C)C)C(=O)N[C@H]1C(=O)N[C@@H](CC(N)=O)C(=O)N[C@H]2C(=O)N[C@H]3C(=O)N[C@H](C(=O)N[C@H](C(=O)O)c4cc(O)cc(O)c4-c4cc3ccc4O)[C@H](O)c3ccc(c(Cl)c3)Oc3cc2cc(c3O[C@@H]2O[C@H](CO)[C@@H](O)[C@H](O)[C@H]2O[C@H]2C[C@](C)(N)[C@H](O)[C@H](C)O2)Oc2ccc(cc2Cl)[C@H]1O` [Vancomycin], the “MIC Range” value is 0.5-0.5 μg/mL in experiment [7]; 0.5 to 2 µg/mL in experiment [4] (S. aureus [MRSA] (31 isolates)); 0.5 to 1 µg/mL in [4] (S. aureus [MSSA] (32 isolates)); 1 to 2 µg/mL in [5] (S. epidermidis [MRSE] (32 isolates)); 1 to 2 µg/mL in experiment [5] (setting [14]); 0.06 to 0.25 µg/mL in experiment [8] (setting [15]). The “MIC Range” value is 0.25 to 0.5 µg/mL in experiment [9] (S. pyogenes (32 isolates)); 0.25 to 2 µg/mL in experiment [10] (S. agalactiae (31 isolates)); 0.5 to 2 µg/mL in experiment [6] (S. haemolyticus (33 isolates)); 0.25 to 1 µg/mL in experiment [11] (setting [16]); 0.5 to 4 µg/mL in [12] (E. faecalis [VSE] (31 isolates)); more than 64 µg/mL in [13] (E. faecium [VRE] (30 isolates)). Also, the “MIC Range” value in [13] (E. faecium [VSE] (32 isolates)) is 0.25 to 2 µg/mL. In addition, the MIC50 in [4] (MRSA) was determined as 1 µg/mL (≈ 0.69 µM); in experiment [4] (MSSA), 1 µg/mL (≈ 0.69 µM); in experiment [5] it was 2 µg/mL (≈ 1.38 µM); in [5] (MRSE) it was 2 µg/mL (≈ 1.38 µM); in [8] (Streptococcus pneumoniae) it was 0.25 µg/mL (≈ 0.173 µM); in experiment [9] (Streptococcus pyogenes), 0.25 µg/mL (≈ 0.173 µM). Besides, the MIC50 in experiment [10] (Streptococcus agalactiae) was 0.5 µg/mL (≈ 0.345 µM); in experiment [6], 1 µg/mL (≈ 0.69 µM); in [11] (Streptococcus) it was 0.25 µg/mL (≈ 0.173 µM); in experiment [12] (Enterococcus faecalis), 1 µg/mL (≈ 0.69 µM); in [13], 1 µg/mL (≈ 0.69 µM); in [13] (VRE) it was more than 64 µg/mL. The MIC90 in experiment [4] (MRSA) was 1 µg/mL (≈ 0.69 µM); in [4] (MSSA) it was 1 µg/mL (≈ 0.69 µM); in experiment [5], 2 µg/mL (≈ 1.38 µM); in experiment [5] (MRSE), 2 µg/mL (≈ 1.38 µM); in [8] (Streptococcus pneumoniae), 0.25 µg/mL (≈ 0.173 µM); in [9] (Streptococcus pyogenes) it was 0.25 µg/mL (≈ 0.173 µM). The MIC90 in [10] (Streptococcus agalactiae) is 0.5 µg/mL (≈ 0.345 µM); in [6], 1 µg/mL (≈ 0.69 µM); in experiment [11] (Streptococcus), 0.5 µg/mL (≈ 0.345 µM); in experiment [12] (Enterococcus faecalis), 2 µg/mL (≈ 1.38 µM); in experiment [13] it was 1 µg/mL (≈ 0.69 µM); in [13] (VRE), more than 64 µg/mL.
In the case of Penicillin, the “MIC Range” value is 0.03 to 0.5 µg/mL in experiment [7]; “≦0.015-0.12 μg/mL” in [8] (setting [15]); “≦0.015-0.25 μg/mL” in experiment [9] (S. pyogenes (32 isolates)); “≦0.015-2 μg/mL” in experiment [10] (S. agalactiae (31 isolates)); “≦0.015-0.03 μg/mL” in experiment [11] (setting [16]). Besides, the MIC50 result in [8] (setting [15]) was “≦0.015 μg/mL”; in [9] (S. pyogenes (32 isolates)) it was “≦0.015 μg/mL”; in experiment [10] (S. agalactiae (31 isolates)), 0.03 µg/mL; in experiment [11] (setting [16]), “≦0.015 μg/mL”. Further, the MIC90 in experiment [8] (setting [15]) is 0.06 µg/mL; in experiment [9] (S. pyogenes (32 isolates)), “≦0.015 μg/mL”; in experiment [10] (S. agalactiae (31 isolates)) it was 1 µg/mL; in [11] (setting [16]) it was “≦0.015 μg/mL”.

For the origin of these results see US20130302442A1, “METHODS OF USING (4S,4AS,5AR,12AS)-4-DIMETHYLAMINO-3,10,12,12A-TETRAHYDROXY-7-[(METHOXY(METHYL)AMINO)-METHYL]-1,11-DIOXO-1,4,4A,5,5A,6,11,12A-OCTAHYDRO-NAPHTHACENE-2-CARBOXYLIC ACID AMIDE” (priority 2012, published 2013).
